According to US6569633B1, “Modulation of the sulfonylurea receptor and calcium in adipocytes for treatment of obesity/diabetes” (Artecel Science, Inc., priority 1998, dated 2003):

What was measured:
Assay type in all cases: cell-based
[1] = test system: human adipocytes; assay: Triglyceride accumulation in human adipocytes; conditions: control 28.2±4.5
Method: Human subcutaneous abdominal adipocytes were isolated from healthy patients undergoing cosmetic liposuction using methodology we have previously described. Briefly, the tissue was washed several times with Hank's Balanced Salt Solution, minced into small fragments and digested with type I collagenase (1 mg/mL) in a shaking water bath at 37° C. for 30-40 minutes. Cells were then filtered through a sterile nylon filter (500 μm mesh) and cultured in Dulbecco's Modified Eagle's Medium (DMEM) supplemented with 1% fetal bovine serum, 1% bovine serum albumin, 100 U/mL penicillin, 100 μg/mL streptomycin and 50 μg/mL gentamicin. Cells were subsequently cultured in suspension in sterile polypropylene flasks in a humidified 37° C./5% CO2 incubator. After one day, suspended (floating) adipocytes were transferred to fresh medium and maintained as a thin layer at the top of the culture medium to ensure access to nutrients. The cells were maintained for another 24 hours in this medium and then changed to fresh medium with the addition of SUR agonists (such as glibenclamide) for up to 48 hours with the compounds to be tested. Medium was changed every 24 hours, and cell viability was verified with trypan blue exclusion at the end of representative experiments.
Stimulation of fatty acid synthase and concomitant inhibition of lipolysis results in increased lipid accumulation in human adipocytes. Adipocytes were treated as described above, harvested, and their triglyceride content was analyzed and normalized for protein content. […] Thus, these calcium-stimulated biochemical activities will contribute to the development of adipocyte hypertrophy and potentially obesity.

[2] = test system: human adipocytes; assay: Intracellular Ca2+ ([Ca2+]i) by fura-2 fluorometry in isolated human adipocytes
Method: FIG. 2. Glibenclamide stimulation of [Ca^2+]i in isolated human adipocyte. [Ca^2+]i in isolated human adipocytes was determined fluorometrically as previously described (4,7). Briefly, the human adipocytes isolated as described above were incubated in DMEM medium overnight for cell recovery. Prior to [Ca^2+]i measurement, adipocytes were pre-incubated in serum-free medium for 2 hrs, rinsed with HBSS solution containing the following components in mM: NaCl 138, CaCl2 1.8, MgSO4 0.8, NaH2PO4 0.9, NaHCO3 4, glucose 20, glutamine 6, HEPES 20 and BSA 1%. Cells were then loaded with fura-2 acetoxymethyl ester (10 μM) in the same buffer for 45 min at 37° C. in the dark with continuous shaking. To remove extracellular dye, cells were rinsed with HBSS for 3 times and resuspended in this solution at a concentration of 2×10^5 cells/ml. [Ca^2+]i was measured using dual excitation (340 and 380 nm) and single emission (510 nm) fluorometry. Following the establishment of stable baseline, the response to glibenclamide (10 and 20 μM) was determined. Digitonin (25 μM) and Tris/EGTA (100 mM) were used to measure maximal and minimal fluorescence to calibrate the signals, and final [Ca^2+]i was then calculated by the equation of Grynkiewicz et al. (17). […] Glibenclamide (Glib) was added at time designated by the arrow. B. The dose-responsive effect of glibenclamide on [Ca^2+]i in human adipocytes. Glibenclamide was added at 10 and 20 µM at the indicated times. *p<0.05 vs. Control, **p<0.05 vs. 10 μM glibenclamide.
The functionality of the SUR1 receptor was determined with respect to calcium mobilization and small molecule effects. [Ca^2+]i response was measured fluorometrically in isolated human adipocytes using a standard method (2,16). Briefly, isolated human adipocytes were incubated in DMEM or any other suitable medium such as Ham's F-10, Modified Eagle's media plus 5-10% fetal calf serum overnight for cell recovery. Prior to [Ca^2+]i measurement, adipocytes were pre-incubated in serum-free medium for 2 hrs, rinsed with HBSS solution containing the following components in mM: NaCl 138, CaCl2 1.8, MgSO4 0.8, NaH2PO4 0.9, NaHCO3 4, glucose 20, glutamine 6, HEPES 20 and BSA 1%. Cells were then loaded with fura-2 acetoxymethyl ester (10 μM) in the same buffer for 30-60 min at 37° C. in dark with continuous shaking. To remove extracellular dye, cells were rinsed with HBSS for three times and resuspended in this solution at a concentration of 1-10×10^5 cells/ml. [Ca^2+]i was measured using dual excitation (340 and 380 nm) and single emission (510 nm) fluorometry. Following the establishment of stable baseline, the response to a SUR agonist such as glibenclamide (1-20 μM) can be determined. Digitonin (25 μM) and Tris/EGTA (100 mM) were used to measure maximal and minimal fluorescence to calibrate the signals, and final [Ca^2+]i was then calculated by a known method such as described in Grynkiewicz et al (17).
Correlation of lipolysis with flux of intracellular calcium ([Ca^2+]i) concentration is then performed. [Ca^2+]i is measured in primary adipocytes. For primary adipocytes, 3 ml of cells are resuspended in 6 ml of HBSS and fura-2/AM was loaded for 80 min at 37° C. Extracellular fura-2/AM is washed three times with HBSS by centrifugation. [Ca^2+]i levels are then measured fluorometrically in suspensions using dual excitation (340 and 380 nm)/single emission (510 nm) fluorometry and [Ca^2+]i is calculated by the computer in the fluorometer. As a control, after loading fura-2/AM cells are pretreated with nitrendipine (RBI, Natick, Mass.) (30 μM, final concentration) for 10 min at 37° C.

[3] = test system: FAS activity in human adipocytes; assay: Fatty acid synthase (FAS) activity in human adipocytes; conditions: for fatty acid synthase activity: control 1.93±0.24

SMILES: COc1ccc(Cl)cc1C(=O)NCCc1ccc(S(=O)(=O)NC(=O)NC2CCCCC2)cc1 [glibenclamide]
- triglyceride accumulation ([1]; 2 μM glibenclamide (dose-responsive series)): 46.1±6.3 μg/mg protein
- triglyceride accumulation ([1]; 10 μM glibenclamide (dose-responsive series)): 58.0±3.4 μg/mg protein
- [Ca2+]i response ([2]; 20 µM glibenclamide (FIG. 2A)): increase in intracellular calcium
- [Ca2+]i response ([2]; 1-20 μM, dose-dependent manner): sustained increases
- EC50 ([2]; Adipocyte, human adipocytes, read-out: EC50 for increase in intracellular free calcium): ~1000 nM
- maximum response of intracellular free calcium ([2]; graded doses, over a baseline of 190 nM): 388 ± 72 nM
- fatty acid synthase activity ([3]; 2 μM glibenclamide): 7.90±0.4 nmol/min/mg protein
- increase in adipocyte FAS activity ([3]; 10 μM glibenclamide, 48 hr): 67%
- FAS activity ([3]; 10 μM glibenclamide, 48 hr, control 0.692±0.052): 1.154±0.010 NADPH nM/min/mg protein
- fatty acid synthase activity ([3]; 10 μM glibenclamide): 12.8 ± 0.6 nmol/min/mg
- increased FAS activity from basal levels ([3]; SUR agonist such as glibenclamide, general description): 50%-500%
